# Results as given in patent US11225469B2, “Inhibitors of phosphoglycerate dehydrogenase (PHGDH) and uses thereof” (Whitehead Institute for Biomedical Research, priority 2015, dated 2022).
# Assays:
# [1] = tested on: MDA-MB-231 cells over-expressing PHGDH; assay: Intracellular serine in MDA-MB-231 cells expressing PHGDH, medium lacking serine and glycine (LC-MS); type: cell-based, human; settings: media lacking serine and glycine
# Description: To examine target engagement of PHGDH inhibitors in cells, MDA-MB-231 cells that lack detectable expression of PHGDH and MDA-MB-231 cells that stably express full-length human PHGDH (MDA-MB-231-PHGDH) were treated with PHGDH inhibitors in RPMI lacking serine and glycine. A MDA-MB-231 cell line was constructed which expresses PHGDH for comparison against the MDA-MB-231 empty vector line. MDA-MB-231 breast cancer cells were infected with PHGDH-expressing retrovirus.
# MDA-MB-231 cells are incapable of synthesizing serine, but the addition of PHGDH permits these cells to synthesize serine. […] Concentrations of serine were determined by comparison with signals of internal standards and calibration curves. PHGDH inhibition reduces steady-state levels of intracellular serine in MDA-MB-231 cells over-expressing PHGDH. Studies were also performed in MDA-MB-468 cells, which over-express PHGDH and are PHGDH-dependent.
# Cells were evenly seeded at 400,000 cells per well of a 6-well plate and allowed to attach for 24 hours. Prior to all labeling experiments, cells were pretreated with 10 μM compound or an equivalent volume of DMSO in RPMI for 1 hour. For steady-state metabolite concentrations, cells were washed with PBS prior to pretreatment and treatment in RPMI lacking serine and glycine. For labeling experiments, U-^13C-glucose, U-^13C-serine, or U-^13C-glycine replaced the corresponding unlabeled RPMI component. Cells were washed in 4° C. […] Triplicate identically seeded wells were trypsinzed and analyzed with a Multisizer Coulter Counter (Beckman Coulter) to obtain cell counts and total cell volumes for normalization.
# Dried metabolites were resuspended in 100 μL water, centrifuged at 13,000×g at 4° C. for 10 minutes, and the supernatant recovered for analysis. […] Metabolites were monitored using a polarity-switching full-scan method and identified by accurate mass (±20 ppm) and retention time within 15 seconds of a previously run pure standard. […]
# PHGDH [2] = molecular target: T1, PHGDH (Homo sapiens (Human), UniProt O43175); assay: PHGDH inhibition, coupled assay with PSAT1/PSPH and diaphorase/resazurin readout; type: biochemical; settings: Table E9; mixture with PSAT1, PSPH; diaphorase/resazurin reporter
# Description: Compounds of the invention were assayed for inhibition of the activity phosphoglycerate dehydrogenase (PHGDH). The compounds were assayed in a mixture comprising PHGDH, PSAT1, PSPH, NADH, and glutamate. Diaphorase and resazurin were used as a fluorescent reporter system.
# In this endogenous pathway coupled assay, the production of NADH by PHGDH was measured through the diaphorasemediated reduction of resazurin (See, e.g., Chakraborty, S., Sakka, M., Kimura, T. & Sakka, K. “Characterization of a dihydrolipoyl dehydrogenase having diaphorase activity of Clostridium kluyveri.” BioscL Biotechnol. Biochem. 72, 982-988 (2008)).
# PHGDH assay buffer contained 50 mM TEA pH 8.0, 10 mM MgCl2, 0.05% BSA, and 0.01% Tween-20. PHGDH enzyme buffer consisted of assay buffer with 20 nM PHGDH and 0.2 mg/mL diaphorase. PHGDH substrate buffer contained 0.3 mM NAD 1.25 mM glutamate, 0.1 mM 3-phosphoglycerate, 0.2 mM resazurin, 1 μM PSAT1, and 1 μM PSPH. qHTS was performed in 1536-well plates dispensed with a BioRAPTR FRD. Each well contained equal volumes of substrate buffer and assay buffer. Plates were read at 0 minutes and 20 minutes at room temperature with a ViewLux uHTS Microplate Imager (PerkinElmer). Follow-up assays were performed in black 384-well plates (Greiner) in 20 μL of enzyme buffer to which compounds were added in dose-response with an HP D300 digital dispenser (Hewlett-Packard), followed by addition of 20 μL of substrate buffer. Plates were incubated at room temperature (25° C.) and read at 0 and 20 minutes with a Spectramax M5 plate reader (Molecular Devices) in fluorescence intensity mode with a λex=550 nm and λem=600 nm (emission cutoff=590 nm).
# panel of 168 GPCRs = assay: Cross-reactivity in a panel of 168 GPCRs
# HSD17B4 = HSD17B4 (Homo sapiens (Human), UniProt P51659); assay: Counter-screen against HSD17B4; type: biochemical; settings: Table E11
# PHGDH [3] = molecular target: T1, PHGDH; assay: Differential scanning fluorimetry; type: binding
# Description: Destabilization has been previously observed in the specific binding of small molecules to their protein targets (see, e.g., Hamiaux, C. et al. “DAD2 is an α/β hydrolase likely to be involved in the perception of the plant branching hormone, strigolactone.” Curr Biol 22, 2032-2036 (2012)).
# Differential scanning fluorimetry assays were carried out in 20 mM TEA pH 8, 100 mM NaCl, 1× SYPRO Orange (Sigma), 2 μM PHGDH in a volume of 10 μL. Unfolding was monitored using a LightCycler 480 II real-time PCR instrument (λex=465 nm and λem=580 nm) over a linear 20 to 85° C. gradient. Plots of the first derivative of fluorescence vs. temperature were generated in LightCycler software.
# MDA-MB-468 cells = assay: Metabolite profiling and 13C labeling in MDA-MB-468 cells (LC-MS); type: cell-based, human; settings: washout
# Description: To track the effects of PHGDH inhibition on glycolysis and serine biosynthesis, MDA-MB-231 and MDA-MB-468 cells were fed universally labeled carbon-13 glucose and the intracellular ratio of labeled to unlabeled glucose was measured at the times indicated in FIG. 3E.
# Cells were evenly seeded at 400,000 cells per well of a 6-well plate and allowed to attach for 24 hours. Prior to all labeling experiments, cells were pretreated with 10 μM compound or an equivalent volume of DMSO in RPMI for 1 hour. For steady-state metabolite concentrations, cells were washed with PBS prior to pretreatment and treatment in RPMI lacking serine and glycine. For labeling experiments, U-^13C-glucose, U-^13C-serine, or U-^13C-glycine replaced the corresponding unlabeled RPMI component. Cells were washed in 4° C. 0.9% (w/v) NaCl in LCMS-grade water and extracted in 1 mL/well of 80:20 (v/v) methanol:water with 0.01 ng/mL Val-d8 and Phe-d8 as internal extraction standards. The extraction solvent was dried under nitrogen gas and metabolite samples were stored at −80° C. until analysis. Triplicate identically seeded wells were trypsinzed and analyzed with a Multisizer Coulter Counter (Beckman Coulter) to obtain cell counts and total cell volumes for normalization.
# Dried metabolites were resuspended in 100 μL water, centrifuged at 13,000×g at 4° C. for 10 minutes, and the supernatant recovered for analysis. Chromatographic separation was achieved by injecting 1 pi of sample on a SeQuant ZIC-pHILIC Polymeric column (2.1 3 150 mm […], EMD Millipore). Flow rate was set to 0.1 ml per minute, column compartment was set to 25° C., and autosampler sample tray was set to 4° C. Mobile Phase A consisted of 20 mM ammonium carbonate, 0.1% ammonium hydroxide. Mobile Phase B was 100% acetonitrile. The mobile phase gradient (% B) was as follows: 0 min 80%, 30 min 20%, 31 min 80%, 42 min 80%. All mobile phase was introduced into the ionization source set with the following parameters: sheath gas=40, auxiliary gas=15, sweep gas=5, spray voltage=−3.1 kV or +3.0 kV, capillary temperature=275° C., S-lens RF level=40, probe temperature=350° C. Metabolites were monitored using a polarity-switching full-scan method and identified by accurate mass (±20 ppm) and retention time within 15 seconds of a previously run pure standard. Metabolite peaks were identified and integrated with Xcalibur v.2.2 software (Thermo Fisher Scientific) and normalized to internal standard and to total cell volume, m/z ratios for stable isotopically labeled metabolites were obtained from IsoMETLIN (See, e.g., Cho, K. et al. “isoMETLIN: a database for isotope-based metabolomics.” Anal Chem 86, 9358-9361 (2014)) and corrected for natural abundance.
# ALDH = ALDH (Homo sapiens (Human), UniProt P00352); assay: Counter-screen against ALDH; type: biochemical; settings: Table E11
# GAPDH = GAPDH (Homo sapiens (Human), UniProt P04406); assay: Counter-screen against GAPDH; type: biochemical; settings: Table E11
# Description: GAPDH substrate buffer contained 210 mM Tris pH 7.4, 2.5 mM NaH2PO4 pH 7.4, 2 mM DL-Glyceraldehyde 3-phosphate, 1.75 mM MgCl2, 0.01 mM NAD+, 0.11 mM resazurin, 0.2 mg/mL BSA, and 0.01% Tween-20. GAPDH enzyme buffer contained 50 mM Tris pH 7.4, 100 mM NaCl, 0.02 mM TCEP, 0.01 mM EDTA, 0.1 mg/mL BSA, 0.42 mg/mL diaphorase, and 2.5 nM GAPDH. The GAPDH, GPD1, and GPD1L assays were run in 384-well plates using the same protocol and readout as the PHGDH assay. […] GPD1 enzyme buffer contained 50 mM Tris pH 7.4, 100 mM NaCl, 0.08 mM TCEP, 0.4 mg/mL BSA, 0.03 μM EDTA, and 0.8 nM GPD1. 70 μL of substrate buffer were mixed with 10 μL enzyme buffer. GPD1L substrate buffer contained 200 mM Tris pH 7.4, 0.05 mM sn-G3-P, 2 mM MgCl2, 0.04 mM NAD+, 0.11 mM resazurin, 0.1 mg/mL BSA, and 0.02% Tween-20. GPD1L enzyme buffer contained 50 mM Tris pH 7.4, 100 mM NaCl, 0.02 mM TCEP, 0.42 mg/mL diaphorase, 0.1 mg/mL BSA, 0.008 μM EDTA, and 16 nM GPD1L. 40 μL of substrate buffer were mixed with 40 μL of enzyme buffer.
# The GAPDH and GPD1L assays were read using the same protocol as the PHGDH assay. The GPD1 assay was read using loss of NADH fluorescence (λex=340 nm and λem=460 nm).
# [4] = tested on: panel of other dehydrogenases; assay: Panel of other dehydrogenases; type: biochemical
# T1 sequence (O43175 whole entry): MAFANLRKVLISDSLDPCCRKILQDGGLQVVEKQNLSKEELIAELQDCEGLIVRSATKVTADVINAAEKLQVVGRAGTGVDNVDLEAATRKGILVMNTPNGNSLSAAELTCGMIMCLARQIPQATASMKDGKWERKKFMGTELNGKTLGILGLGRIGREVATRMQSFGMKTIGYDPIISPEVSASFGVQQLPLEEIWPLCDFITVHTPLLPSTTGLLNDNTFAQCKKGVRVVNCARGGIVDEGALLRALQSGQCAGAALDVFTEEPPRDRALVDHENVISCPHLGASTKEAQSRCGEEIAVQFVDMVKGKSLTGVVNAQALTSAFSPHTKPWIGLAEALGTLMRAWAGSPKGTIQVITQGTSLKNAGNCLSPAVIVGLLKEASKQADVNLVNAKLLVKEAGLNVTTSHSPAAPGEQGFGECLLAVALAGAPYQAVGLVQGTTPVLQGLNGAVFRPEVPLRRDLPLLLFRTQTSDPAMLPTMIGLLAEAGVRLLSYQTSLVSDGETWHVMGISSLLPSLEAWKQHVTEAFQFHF
# Chain of GAPDH (P04406 whole entry): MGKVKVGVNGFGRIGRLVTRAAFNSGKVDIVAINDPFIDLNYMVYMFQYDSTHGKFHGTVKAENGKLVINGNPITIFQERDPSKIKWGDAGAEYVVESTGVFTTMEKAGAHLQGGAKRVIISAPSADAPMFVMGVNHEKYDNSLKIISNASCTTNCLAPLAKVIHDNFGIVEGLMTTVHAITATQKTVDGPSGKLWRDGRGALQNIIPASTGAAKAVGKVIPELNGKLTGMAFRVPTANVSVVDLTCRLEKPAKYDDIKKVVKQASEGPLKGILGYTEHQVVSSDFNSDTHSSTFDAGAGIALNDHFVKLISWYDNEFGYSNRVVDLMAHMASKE
# Chain of HSD17B4 (P51659 whole entry, species assumed): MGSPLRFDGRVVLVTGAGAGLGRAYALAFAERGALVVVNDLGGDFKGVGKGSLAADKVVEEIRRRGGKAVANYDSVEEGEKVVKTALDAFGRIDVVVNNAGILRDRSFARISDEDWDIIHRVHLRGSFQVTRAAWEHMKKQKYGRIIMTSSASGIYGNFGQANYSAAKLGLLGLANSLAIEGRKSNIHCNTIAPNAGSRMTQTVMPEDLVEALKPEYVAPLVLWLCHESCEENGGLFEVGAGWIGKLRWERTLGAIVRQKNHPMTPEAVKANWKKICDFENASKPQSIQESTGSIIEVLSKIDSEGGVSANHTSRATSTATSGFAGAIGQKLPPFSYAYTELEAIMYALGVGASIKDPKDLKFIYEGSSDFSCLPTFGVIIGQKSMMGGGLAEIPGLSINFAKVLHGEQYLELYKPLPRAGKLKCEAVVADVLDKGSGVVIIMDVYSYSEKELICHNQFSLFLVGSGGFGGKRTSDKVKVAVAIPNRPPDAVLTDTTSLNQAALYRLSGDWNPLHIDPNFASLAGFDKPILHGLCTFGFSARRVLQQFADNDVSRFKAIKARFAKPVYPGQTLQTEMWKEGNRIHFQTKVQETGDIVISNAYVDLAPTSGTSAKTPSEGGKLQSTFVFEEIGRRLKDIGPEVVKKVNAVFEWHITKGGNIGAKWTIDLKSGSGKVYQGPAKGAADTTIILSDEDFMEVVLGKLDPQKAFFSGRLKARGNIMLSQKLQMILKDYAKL
# Chain of ALDH (P00352 whole entry): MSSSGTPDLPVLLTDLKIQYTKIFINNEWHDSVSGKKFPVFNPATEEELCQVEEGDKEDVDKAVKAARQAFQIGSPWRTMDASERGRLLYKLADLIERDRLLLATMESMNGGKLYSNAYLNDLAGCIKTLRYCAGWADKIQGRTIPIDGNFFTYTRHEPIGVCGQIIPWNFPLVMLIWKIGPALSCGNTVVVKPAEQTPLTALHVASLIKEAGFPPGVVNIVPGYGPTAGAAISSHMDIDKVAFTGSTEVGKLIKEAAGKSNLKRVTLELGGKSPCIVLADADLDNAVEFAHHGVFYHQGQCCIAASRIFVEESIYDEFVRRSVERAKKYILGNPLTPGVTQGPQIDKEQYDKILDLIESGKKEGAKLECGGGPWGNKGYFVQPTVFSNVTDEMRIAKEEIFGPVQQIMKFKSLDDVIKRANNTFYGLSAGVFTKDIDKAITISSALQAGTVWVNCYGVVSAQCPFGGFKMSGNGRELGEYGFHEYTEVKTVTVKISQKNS
Compound,IC50 (PHGDH [2]),also measured
"Cc1cc(C)nc(NC(=S)N2CCN(c3ccc(C(F)(F)F)cn3)CC2)c1 [Compound 72, N-(4,6-dimethylpyridin-2-yl)-4-(5-(trifluoromethyl)pyridin-2-yl)piperazine-1-carbothioamide]",–,"cross-reactivity, modulation of activity (panel of 168 GPCRs): < 30%; IC50 (HSD17B4): ≥ 100 µM; Tm of PHGDH (PHGDH [3]): decreased; reversibility of inhibition of serine synthesis in cells (MDA-MB-468 cells): reversible; IC50 (ALDH): 10 to 50 µM; intracellular serine levels [1]: decreased; IC50 (GAPDH): ≥ 100 µM; activity against a panel of other dehydrogenases [4]: inactive"
FC(F)(F)c1cccc(N2CCN(C(=S)Nc3nc[nH]n3)CC2)c1 [Compound 234],≥ 20 µM,–
COc1ccc2nc(NC(=S)N3CCN(c4cccc(C(F)(F)F)c4)CC3)[nH]c2c1 [Compound 243],< 5 µM,–
Cc1cc(C)nc(NC(=S)N2CCC(NC(=O)c3cccc(C(F)(F)F)c3)CC2)c1 [Compound 263],< 5 µM,–
FC(F)(F)c1cccc(N2CCN(C(=S)Nc3cc(C(F)(F)F)ccn3)CC2)c1 [Compound 26],5 to 10 µM,–
FC(F)(F)c1cccc(N2CCN(C(=S)Nc3ncnc4ccccc34)CC2)c1 [Compound 143],5 to 10 µM,–
Cn1c(NC(=S)N2CCN(c3cccc(C(F)(F)F)c3)CC2)nc2ccccc21 [Compound 229],5 to 10 µM,–
Cc1cc(C)nc(NC(=S)N2CCC(CN3CCCCC3)CC2)c1 [Compound 271],≥ 20 µM,–
Cc1cc(C)nc(NC(=S)N2CCN(Cc3ccc(C(F)(F)F)cc3)C(c3ccccc3)C2)c1 (centres unmarked) [Compound 273],10 to 20 µM,–
Cc1cc(C)nc(NC(=S)N2CC3CN(c4ccc(Cl)cc4C(F)(F)F)CC3C2)c1 (centres unmarked) [Compound 223],10 to 20 µM,–
FC(F)(F)c1cccc(N2CCN(C(=S)Nc3ccncc3)CC2)c1 [Compound 31],10 to 20 µM,–
COc1cccc(NC(=S)N2CCN(c3cccc(Cl)c3Cl)CC2)n1 [Compound 189],10 to 20 µM,–
Cc1cc(C)nc(NC(=S)N2CCN(c3cc(Br)cc(C(F)(F)F)c3)CC2)c1 [Compound 142],5 to 10 µM,–
CC(Cc1ccccc1)C(=O)Nc1ccc(Cl)cc1C(=O)O (centres unmarked) [Compound 20],≥ 20 µM,–
Cc1cc(C)nc(NC(=S)N2CCN(c3coc4ccccc34)CC2)c1 [Compound 86],10 to 20 µM,–
Cc1cc(C)nc(NC(=S)N2CCN(c3ccc(C(F)(F)F)cc3[N+](=O)[O-])CC2)c1 [Compound 110],5 to 10 µM,–
Cc1cc(C)nc(NC(=S)N2CCN(c3ccc4ccccc4n3)CC2)c1 [Compound 85],10 to 20 µM,–
FC(F)(F)c1cccc(N2CCN(C(=S)Nc3cc[nH]n3)CC2)c1 [Compound 236],5 to 10 µM,–
Cc1ccnc(N(C)C(=S)N2CCN(c3cccc(C(F)(F)F)c3)CC2)c1 [Compound 52],≥ 20 µM,–
FC(F)(F)c1cccc(N2CCN(C(=S)Nc3nc4ccccc4[nH]3)CC2)c1 [Compound 228],< 5 µM,–
Cc1cc(C)nc(NC(=S)N2CCN(c3nsc4ccccc34)CC2)c1 [Compound 108],10 to 20 µM,–

# Now from value to molecule, other results behind:
IC50 (PHGDH [2]),Compound,also measured
≥ 20 µM,"Cc1cc(C)nc(NC(=S)N2CCN(c3ccncc3)CC2)c1 [Compound 71, N-(4,6-dimethylpyridin-2-yl)-4-(pyridin-4-yl)piperazine-1-carbothioamide]",intracellular serine levels [1]: not reduced
10 to 20 µM,FC(F)(F)c1cnc(N2CCN(C(=S)Nc3cc(Cl)ccn3)CC2)c(Cl)c1 [Compound 202],–
≥ 20 µM,CCOC(=O)N1CCN(C(=S)Nc2cc(C)cc(C)n2)CC1 [Compound 259],–
≥ 20 µM,Cc1cc(C)nc(NC(=S)N2CCN(Cc3cccnc3)CC2)c1 [Compound 283],–
5 to 10 µM,COc1ccnc(NC(=S)N2CCN(c3cc(Cl)cc(Cl)c3)CC2)c1 [Compound 178],–
< 5 µM,Cc1ccnc(NC(=S)N2CCN(c3cccc(C(F)(F)F)n3)CC2)c1 [Compound 175],–
10 to 20 µM,Cc1cc(C)nc(NC(=S)N2CCN(c3cccc4[nH]ccc34)CC2)c1 [Compound 155],–
≥ 20 µM,"Cc1cc(C)nc(NC(=S)N2CCN(Cc3ccccn3)CC2)c1 [Compound 287, N-(4,6-dimethylpyridin-2-yl)-4-(pyridin-2-ylmethyl)piperazine-1-carbothioamide]",–
≥ 20 µM,Cc1cc(C)nc(NC(=S)N2CCN(c3nncs3)CC2)c1 [Compound 131],–
5 to 10 µM,Cc1ccnc(NC(=S)N2CCN(c3ccc(C(F)(F)F)cc3)CC2)c1 [Compound 4],–
5 to 10 µM,COc1ccnc(NC(=S)N2CCN(c3ccccc3C(F)(F)F)CC2)c1 [Compound 183],–
5 to 10 µM,Cc1ccnc(NC(=S)N2CCN(c3ccc(Cl)cc3Cl)CC2)c1 [Compound 172],–
≥ 20 µM,Cc1ccnc(NC(=S)N2CCN(c3ccc(Br)cc3)CC2)c1 [Compound 9],–
10 to 20 µM,Cc1cc(C)nc(NC(=S)N2CCN(Cc3cccc(Br)c3)CC2)c1 [Compound 282],–
10 to 20 µM,Cc1cc(C)nc(NC(=S)N2CCN(c3nccc4occc34)CC2)c1 [Compound 103],–
≥ 20 µM,Cc1ccnc(NC(=S)N2CCNCC2)c1 [Compound 53],–
10 to 20 µM,COc1ccnc(NC(=S)N2CCN(c3ccc(Cl)cc3Cl)CC2)c1 [Compound 181],–
< 5 µM,COc1ccnc(NC(=S)N2CCN(c3cccc(C(F)(F)F)c3)CC2)c1 [Compound 36],–
